Source: patent US9975896B2, “Inhibitors of transcription factors and uses thereof” (Dana-Farber Cancer Institute, Inc., priority 2013, dated 2018)
Where a chain is given by its changes, count along the chain named.

Assays:
ATAD2A = biological target: T1, ATAD2A (Homo sapiens, UniProt Q6PL18); assay: BromoScan selectivity panel (Kd); assay type: binding
T1 sequence (Q6PL18 981-1108 limits assumed): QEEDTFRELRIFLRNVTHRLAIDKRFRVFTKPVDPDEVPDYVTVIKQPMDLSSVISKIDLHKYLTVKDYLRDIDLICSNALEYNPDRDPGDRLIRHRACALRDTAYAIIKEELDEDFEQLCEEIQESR

ATAD2B = biological target: T2, ATAD2B (Homo sapiens, UniProt Q9ULI0); assay: BromoScan selectivity panel (Kd); assay type: binding
T2 sequence (Q9ULI0 953-1085 limits assumed): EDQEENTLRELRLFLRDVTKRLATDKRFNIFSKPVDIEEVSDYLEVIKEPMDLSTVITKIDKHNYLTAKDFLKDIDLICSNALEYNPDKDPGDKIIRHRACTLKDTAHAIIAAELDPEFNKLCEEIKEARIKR

BAZ2A = biological target: T3, BAZ2A (Homo sapiens, UniProt Q9UIF9); assay: BromoScan selectivity panel (Kd); assay type: binding
T3 sequence (Q9UIF9 1796-1899 limits assumed): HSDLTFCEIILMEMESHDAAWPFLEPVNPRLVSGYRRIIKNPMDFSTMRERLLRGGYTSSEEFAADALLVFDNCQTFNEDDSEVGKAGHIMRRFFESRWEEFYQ

BAZ2B = biological target: T4, BAZ2B (Homo sapiens, UniProt Q9UIF8); assay: BromoScan selectivity panel (Kd); assay type: binding
T4 sequence (Q9UIF8 2054-2168 limits assumed): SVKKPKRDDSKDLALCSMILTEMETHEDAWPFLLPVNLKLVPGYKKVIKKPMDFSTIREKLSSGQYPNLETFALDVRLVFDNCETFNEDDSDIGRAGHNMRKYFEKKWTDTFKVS

BRD1 = biological target: T5, BRD1 (Homo sapiens, UniProt O95696); assay: BromoScan selectivity panel (Kd); assay type: binding
T5 sequence (O95696 556-688 limits assumed): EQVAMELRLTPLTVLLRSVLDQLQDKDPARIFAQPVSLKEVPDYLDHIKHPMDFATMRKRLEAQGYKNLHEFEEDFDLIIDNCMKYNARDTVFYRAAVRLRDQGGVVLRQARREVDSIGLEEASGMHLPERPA

BRD9 = biological target: T6, BRD9 (Homo sapiens, UniProt Q9H8M2); assay: BromoScan selectivity panel (Kd); assay type: binding
T6 sequence (Q9H8M2 130-250 limits assumed): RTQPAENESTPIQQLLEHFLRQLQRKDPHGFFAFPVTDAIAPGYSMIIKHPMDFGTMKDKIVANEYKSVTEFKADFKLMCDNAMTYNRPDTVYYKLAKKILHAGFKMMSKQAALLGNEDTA

BRDT(1) = biological target: T7, BRDT(1) (Homo sapiens, UniProt Q58F21); assay: BromoScan selectivity panel (Kd); assay type: binding
T7 construct: the bromodomain-containing protein is BRDT(1)

BRDT(2) = BRDT(2) (Homo sapiens, UniProt Q58F21); assay: BromoScan selectivity panel (Kd); assay type: binding
BRPF1 = biological target: T8, BRPF1 (Homo sapiens, UniProt P55201); assay: BromoScan selectivity panel (Kd); assay type: binding
T8 sequence (P55201 626-740 limits assumed): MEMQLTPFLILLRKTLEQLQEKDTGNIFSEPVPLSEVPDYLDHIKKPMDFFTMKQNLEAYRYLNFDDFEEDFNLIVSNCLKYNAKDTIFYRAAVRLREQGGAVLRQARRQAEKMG

BRPF3 = biological target: T9, BRPF3 (Homo sapiens, UniProt Q9ULD4); assay: BromoScan selectivity panel (Kd); assay type: binding
T9 sequence (Q9ULD4 589-693 limits assumed): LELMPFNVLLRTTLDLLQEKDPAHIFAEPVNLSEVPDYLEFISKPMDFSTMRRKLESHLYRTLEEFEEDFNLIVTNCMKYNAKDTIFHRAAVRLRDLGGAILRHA

EP300 = biological target: T10, EP300 (Homo sapiens, UniProt Q09472); assay: BromoScan selectivity panel (Kd); assay type: binding
T10 sequence (Q09472 1040-1161 limits assumed): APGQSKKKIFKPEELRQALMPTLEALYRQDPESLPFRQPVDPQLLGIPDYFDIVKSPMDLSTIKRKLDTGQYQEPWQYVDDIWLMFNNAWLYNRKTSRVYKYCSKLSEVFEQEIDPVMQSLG

FALZ = FALZ (Homo sapiens, UniProt Q12830); assay: BromoScan selectivity panel (Kd); assay type: binding
TAF1(2) = biological target: T11, TAF1(2) (Homo sapiens, UniProt P21675); assay: BromoScan selectivity panel (Kd); assay type: binding
T11 construct: TAF1(2)
T11 sequence (P21675 1519-1628 limits assumed): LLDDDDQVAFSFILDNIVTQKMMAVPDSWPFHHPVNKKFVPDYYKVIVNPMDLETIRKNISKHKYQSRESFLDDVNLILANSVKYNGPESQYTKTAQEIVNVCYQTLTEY

TAF1L(2) = biological target: T12, TAF1L(2) (Homo sapiens, UniProt Q8IZX4); assay: BromoScan selectivity panel (Kd); assay type: binding
T12 construct: TAF1L(2)
T12 sequence (Q8IZX4 1517-1626 limits assumed): T11 sequence (P21675 1519-1628 limits assumed) with V46M, M51V, V102I, L107I

TRIM24(PHD Bromo.) = biological target: T13, TRIM24(PHD Bromo.) (Homo sapiens, UniProt O15164); assay: BromoScan selectivity panel (Kd); assay type: binding
T13 construct: TRIM24(PHD Bromo.)
T13 sequence (O15164 824-1006 limits assumed): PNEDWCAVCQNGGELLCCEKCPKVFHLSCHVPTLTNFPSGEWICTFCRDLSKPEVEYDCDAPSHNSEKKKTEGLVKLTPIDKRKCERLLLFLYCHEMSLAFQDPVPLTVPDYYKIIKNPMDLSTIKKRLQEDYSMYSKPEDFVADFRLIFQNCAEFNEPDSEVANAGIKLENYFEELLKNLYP

TRIM33(PHD Bromo.) = biological target: T14, TRIM33(PHD Bromo.) (Homo sapiens, UniProt Q9UPN9); assay: BromoScan selectivity panel (Kd); assay type: binding
T14 construct: TRIM33(PHD, Bromo.); TRIM33(PHD Bromo.); fused on or other part: The vendor panel's detection tag or display handle
T14 sequence (Q9UPN9 1-1127): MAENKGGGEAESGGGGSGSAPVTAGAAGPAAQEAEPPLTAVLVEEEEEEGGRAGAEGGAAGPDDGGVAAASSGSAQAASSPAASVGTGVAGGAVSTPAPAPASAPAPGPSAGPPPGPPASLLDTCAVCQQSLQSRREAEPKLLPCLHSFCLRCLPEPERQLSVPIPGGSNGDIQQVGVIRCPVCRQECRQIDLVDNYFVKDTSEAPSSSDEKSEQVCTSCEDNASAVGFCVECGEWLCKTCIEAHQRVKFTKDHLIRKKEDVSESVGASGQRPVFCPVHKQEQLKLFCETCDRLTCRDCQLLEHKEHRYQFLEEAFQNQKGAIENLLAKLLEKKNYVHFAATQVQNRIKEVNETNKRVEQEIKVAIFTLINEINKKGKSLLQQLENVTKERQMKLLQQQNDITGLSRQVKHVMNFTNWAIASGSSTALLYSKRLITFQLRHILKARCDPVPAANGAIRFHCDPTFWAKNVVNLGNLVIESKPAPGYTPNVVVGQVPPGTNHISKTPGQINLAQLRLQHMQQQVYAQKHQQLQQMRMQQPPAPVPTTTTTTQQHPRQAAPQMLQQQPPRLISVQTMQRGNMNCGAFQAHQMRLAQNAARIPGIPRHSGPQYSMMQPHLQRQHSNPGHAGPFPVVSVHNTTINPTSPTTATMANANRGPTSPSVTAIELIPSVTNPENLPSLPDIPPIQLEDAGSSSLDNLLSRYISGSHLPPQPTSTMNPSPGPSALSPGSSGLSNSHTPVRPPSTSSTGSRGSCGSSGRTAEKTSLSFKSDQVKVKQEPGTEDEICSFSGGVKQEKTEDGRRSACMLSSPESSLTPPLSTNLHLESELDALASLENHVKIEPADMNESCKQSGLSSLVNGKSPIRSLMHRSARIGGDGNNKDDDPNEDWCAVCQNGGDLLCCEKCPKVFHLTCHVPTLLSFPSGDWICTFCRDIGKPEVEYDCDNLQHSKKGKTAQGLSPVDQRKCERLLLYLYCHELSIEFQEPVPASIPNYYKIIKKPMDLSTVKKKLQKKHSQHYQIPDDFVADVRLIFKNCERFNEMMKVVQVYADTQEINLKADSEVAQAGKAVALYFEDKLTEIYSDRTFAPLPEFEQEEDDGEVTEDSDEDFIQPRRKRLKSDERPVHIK

WDR9(2) = biological target: T15, WDR9(2) (Homo sapiens, UniProt Q9NSI6); assay: BromoScan selectivity panel (Kd); assay type: binding
T15 construct: WDR9(2)

CBP [1] = biological target: T16, CBP (Homo sapiens, UniProt Q92793); assay: BromoScan selectivity panel (Kd)
Target sequence in this assay (Q92793 1081-1197 limits assumed): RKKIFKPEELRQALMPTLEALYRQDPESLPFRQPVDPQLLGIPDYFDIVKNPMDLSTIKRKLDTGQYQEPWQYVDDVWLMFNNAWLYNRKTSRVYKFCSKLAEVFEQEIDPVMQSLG

[2] = test system: lung carcinoma cell line H2171; assay: Cellular IC50 in lung carcinoma cell line H2171; assay type: cell-based
Protocol: Cells (e.g., BRD4 dependant cells) were counted and adjusted to 60,000 cells/mL. Using a Biotek EL406, 50 μL of the cells in media were distributed into 384 well white plates from Thermo. Immediately after plating, compounds of the invention in DMSO were distributed to plates. For large plate sets, cells were returned to a 37° C. incubator while not in use. The compounds were added to plates using a 100 nL 384 well pin transfer manifold on a Janus workstation. Stocks were arrayed in 10 point quadruplicate dose response in DMSO stock in 384-well Greiner compound plates. After addition of the compounds, plates were incubated for three days in a 37° C. incubator. Cell viability was read out using ATPlite from Perkin Elmer. Plates were removed from the incubator and brought to room temperature prior to use. Lyophilized powder was resuspended in lysis buffer and diluted 1:2 with DI water. 25 μL of this solution was added to each well using the Biotek liquid handler. Plates were sealed with adherent aluminum seals prior to vortexing and spinning down at 1000 g for 1 minute. Plates were incubated for 15 minutes at room temperature before signal was read on an Envision Plate Reader.

CBP [3] = biological target: T16, CBP; assay: In vitro AlphaScreen protein binding assay, CBP
Target sequence in this assay (Q92793 1085-1192 limits assumed): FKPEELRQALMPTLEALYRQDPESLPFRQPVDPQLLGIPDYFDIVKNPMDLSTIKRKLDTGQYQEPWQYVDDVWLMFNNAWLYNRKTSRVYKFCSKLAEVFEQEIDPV
Protocol: (§1) Assays were performed with minor modifications from the manufacturer's protocol (PerkinElmer, USA). All reagents were diluted in 50 mM HEPES, 150 mM NaCl, 0.1% w/v BSA, and 0.01% w/v Tween® 20 at pH 7.5 and allowed to equilibrate to room temperature prior to addition to plates. After addition of Alpha beads to master solutions, all subsequent steps were performed in low light conditions. […] After a 1000-rpm spin-down for 1 minute, 100 nL of the solutions of compounds of the invention in DMSO from stock plates were added by pin transfer using a Janus Workstation (PerkinElmer, USA). The streptavidin-coated donor beads (25 μg/ml final) were added as with previous solution in a 2×, 10 μL volume. Following this addition, the plates were sealed with foil to block light exposure and to prevent evaporation. The plates were spun down again at 1000 rpm for 1 minute. Next, the plates were incubated in the room with the plate reader (for temperature equilibration) for 1 hour prior to reading the assay. Signal is stable for up to 3 hours after donor bead addition.

[4] = test system: BRD4-dependent Nut-Midline Carcinoma line 797; assay: Cell viability (ATPlite) in BRD4 dependant cell line 797; settings: Homo sapiens, read-out: 797--EC50 (μM)
BRD4 = BRD4 (Homo sapiens, UniProt O60885); assay: In vitro AlphaScreen protein binding assay (competition with biotinylated JQ1)
Protocol: as §1

T15 sequence (Q9NSI6 1313-1418 limits assumed): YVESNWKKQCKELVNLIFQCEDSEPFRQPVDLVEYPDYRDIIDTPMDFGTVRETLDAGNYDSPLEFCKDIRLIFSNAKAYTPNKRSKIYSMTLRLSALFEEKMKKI

SMILES	Kd (ATAD2A)	Kd (ATAD2B)	Kd (BAZ2A)	Kd (BAZ2B)	Kd (BRD9)	Kd (BRPF1)	Kd (BRPF3)	Kd (EP300)	Kd (FALZ)	Kd (TRIM24(PHD Bromo.))	Kd (TRIM33(PHD Bromo.))	Kd (WDR9(2))	Kd (CBP [1])	also measured
CCNC(=O)C[C@@H]1N=C(c2ccc(Cl)cc2)c2cc(OC)ccc2-n2c(C)nnc21 [I-BET, reference compound]	≥ 40 µM	≥ 40 µM	≥ 40 µM	≥ 40 µM	≥ 40 µM	≥ 40 µM	≥ 40 µM	71 µM	≥ 40 µM	≥ 40 µM	≥ 40 µM	≥ 40 µM	76 µM	Kd (BRD1): ≥ 40 µM; Kd (BRDT(1)): 0.16 µM; Kd (BRDT(2)): 0.045 µM; Kd (TAF1(2)): ≥ 40 µM; Kd (TAF1L(2)): ≥ 40 µM
CCOC(=O)[C@]1(C)N[C@H](c2ccc(-c3c(C)noc3C)cc2)[C@@H]2C(=O)N(CC)C(=O)[C@@H]21 [UMB17, (1R,3S,3aR,6aS)-ethyl 3-(4-(3,5-dimethylisoxazol-4-yl)phenyl)-5-ethyl-1-methyl-4,6-dioxooctahydropyrrolo[3,4-c]pyrrole-1-carboxylate]														IC50 ([2]; Homo sapiens, NCI-H2171, Table 2, cellular, lung carcinoma cell line H2171): 55 µM; cellular activity in H2171 ([2]; text b616): show cellular activity in H2171; IC50 (CBP [3]): 30 µM; EC50 [4]: 9.42 µM; IC50 (BRD4; BRD4--IC50 (μM), Table 5, biochemical): > 100 µM; IC50 (BRD4; BRD4 IC50 (μM), Table 2, AlphaScreen): 122 µM
Cc1sc2c(c1C)C(c1ccc(Cl)cc1)=NC(CC(=O)OC(C)(C)C)c1nnc(C)n1-2 (stereo not shown) [JQ1, reference compound]	≥ 40 µM	≥ 40 µM	≥ 40 µM	≥ 40 µM	≥ 40 µM	≥ 40 µM	≥ 40 µM	51 µM	≥ 40 µM	≥ 40 µM	≥ 40 µM	≥ 40 µM	24 µM	
